According to patent publication US12102620B2, “Combination therapy for the treatment of mastocytosis” (Deciphera Pharmaceuticals, LLC, priority 2018, dated 2024):
“Also recorded” adds a separate entry of the source.

Experiments:
Format in all cases: cell-based
[1] = system: EV-transfected HMC1.2 mast cells; test: Colony outgrowth after drug removal, empty vector transfected cells; details: all concentrations, 5 days after drug removal
From the text: (§1) Drug treatments were removed and colony outgrowth of viable cells was monitored after 5 or 13 additional days.
(§2) Drug treatments were removed and colony outgrowth of viable cells was monitored after 5 or 10 additional days.

[2] = system: N-ras G12D-transfected HMC1.2 cells; test: Colony outgrowth after drug removal, N-ras G12D transfected cells; details: all concentrations, 5 days after drug removal
From the text: as §1, §2

[3] = system: HMC1.2 mast cells (KIT D816V); test: Colony outgrowth in soft agar after drug removal; details: all concentrations, 10 days treatment, 5 days after drug removal
From the text: Drug treatments were removed and colony outgrowth of viable cells was monitored after 5 additional days.

[4] = system: HMC1.2 KIT V560G/D816V mast cell line; test: Cell proliferation, HMC1.2 KIT V560G/D816V mast cell line; details: 72 h, read-out: IC50, inhibition of cell proliferation
Method: (§3) Assays were conducted in 96 well plates with 10,000 cells seeded per well.

[5] = system: HMC1.1 KIT V560G mast cell line; test: Cell proliferation, HMC1.1 KIT V560G mast cell line; details: 72 h, read-out: IC50, inhibition of cell proliferation
Method: as §3

| Compound | colony outgrowth, single agent [1] | colony outgrowth, single agent [2] | colony outgrowth, single agent [3] | IC50 [4] [nM] | IC50 [5] [nM] |
| --- | --- | --- | --- | --- | --- |
| CCn1c(=O)c(-c2cc(NC(=O)Nc3ccccc3)c(F)cc2Br)cc2cnc(NC)cc21 [Compound A, 1-[4-bromo-5-[1-ethyl-7-(methylamino)-2-oxo-1,2-dihydro-1,6-naphthyridin-3-yl]-2-fluorophenyl]-3-phenylurea] | colony outgrowth at all concentrations; also recorded: eradication was not observed | colony outgrowth at all concentrations; also recorded: eradication was not observed |  |  |  |
| O=C(c1ccc(F)c(F)c1Nc1ccc(I)cc1F)N1CC(O)([C@@H]2CCCCN2)C1 [cobimetinib, reference compound] | colony outgrowth at all concentrations; also recorded: eradication was not observed | colony outgrowth at all concentrations; also recorded: eradication was not observed | colony outgrowth at all concentrations |  |  |
| Cn1cnc2c(F)c(Nc3ccc(Br)cc3F)c(C(=O)NOCCO)cc21 [binimetinib] |  |  | colony outgrowth at all concentrations; also recorded: eradication was not observed |  |  |
| CCn1c(=O)c(-c2cc(NC(=O)Nc3ccccc3)c(F)cc2Br)cc2cnc(N)cc21 [Compound B, 1-(5-(7-amino-l-ethyl-2-oxo-1,2-dihydro-1,6-naphthyridin-3-yl)-4-bromo-2-fluorophenyl)-3-phenylurea] |  |  | colony outgrowth at all concentrations; also recorded: eradication was not observed | 61 | 2.3 |
